Reference: ChEMBL document CHEMBL6153079, “Discovery of noncovalent diaminopyrimidine-based Inhibitors for glioblastoma via a dual FAK/DNA targeting strategy” (Eur J Med Chem, 2025)
Active and inactive are the calls of the source. The rule behind the calls is not given here.

How the values were obtained:
Focal adhesion kinase 1 [1] = molecular target: T1, Focal adhesion kinase 1 (Homo sapiens, UniProt Q05397); test: Inhibition of FAK (unknown origin) preincubated for 10 mins followed by ATP and substrate addition and measured after 50 mins by HTRF analysis
Target sequence in this assay (Q05397 whole entry): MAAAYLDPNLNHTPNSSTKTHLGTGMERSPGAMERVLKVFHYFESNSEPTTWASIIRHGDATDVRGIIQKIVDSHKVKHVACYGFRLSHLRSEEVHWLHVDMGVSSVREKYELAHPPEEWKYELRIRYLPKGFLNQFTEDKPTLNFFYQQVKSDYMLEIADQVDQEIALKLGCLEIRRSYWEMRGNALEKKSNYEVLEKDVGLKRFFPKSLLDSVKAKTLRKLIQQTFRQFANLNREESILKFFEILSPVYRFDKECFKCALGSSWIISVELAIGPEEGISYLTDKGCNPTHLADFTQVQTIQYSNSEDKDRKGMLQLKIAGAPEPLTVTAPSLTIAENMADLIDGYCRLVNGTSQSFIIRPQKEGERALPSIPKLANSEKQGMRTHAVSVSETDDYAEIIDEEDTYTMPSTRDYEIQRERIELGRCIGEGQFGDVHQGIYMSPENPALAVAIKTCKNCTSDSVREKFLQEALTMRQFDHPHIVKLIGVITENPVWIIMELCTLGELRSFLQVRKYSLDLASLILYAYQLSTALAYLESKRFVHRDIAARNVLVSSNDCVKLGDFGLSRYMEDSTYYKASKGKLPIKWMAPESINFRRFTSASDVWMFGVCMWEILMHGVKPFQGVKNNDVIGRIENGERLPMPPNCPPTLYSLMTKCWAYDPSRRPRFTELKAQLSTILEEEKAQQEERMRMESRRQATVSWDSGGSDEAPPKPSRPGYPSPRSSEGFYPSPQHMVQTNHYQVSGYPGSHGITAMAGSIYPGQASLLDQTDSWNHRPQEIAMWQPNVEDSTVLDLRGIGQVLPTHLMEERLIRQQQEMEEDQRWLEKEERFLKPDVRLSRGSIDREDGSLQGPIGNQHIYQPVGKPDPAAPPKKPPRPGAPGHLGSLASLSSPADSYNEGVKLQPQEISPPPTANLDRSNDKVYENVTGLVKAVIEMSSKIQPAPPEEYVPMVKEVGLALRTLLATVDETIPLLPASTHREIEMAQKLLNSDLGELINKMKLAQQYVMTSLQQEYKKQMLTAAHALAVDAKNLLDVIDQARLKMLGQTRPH

[2] = Cytotoxicity against human LO2 assessed as cell viability incubated for 48 hrs by MTT assay; type: toxicity, cell-based, L02; conditions: LO2 cells
[3] = Cytotoxicity against human 2BS assessed as cell viability incubated for 48 hrs by MTT assay; type: toxicity, cell-based; conditions: 2BS cells
[4] = Effective permeability of compound at pH 7.4 incubated for 16 hrs by LCMS analysis; type: ADME; conditions: pH 7.4, 16 h
[5] = Selectivity ratio of IC50 for cytotoxicity against human LO2 assessed as cell viability to IC50 for antiproliferative activity against human U-251 assessed as cell viability; type: toxicity; conditions: LO2 cells versus U-251 cells, read-out: Ratio IC50
[6] = Selectivity ratio of IC50 for cytotoxicity against human LO2 assessed as cell viability to IC50 for antiproliferative activity against human U-87 MG assessed as cell viability; type: toxicity; conditions: LO2 cells versus U-87 MG cells, read-out: Ratio IC50
U-87 MG [7] = test: Induction of DNA damage in human U-87 MG cells incubated for 2.5 to 3 hrs by comet assay; type: functional, cell-based; conditions: U-87MG ATCC, dose 0.1-2 µM, time 2.5-3 hrs
U-87 MG [8] = test: Inhibition of colony formation in human U-87 MG cells at 0.005 uM incubated for 14 days and subsequent media replacement with compound for every 3 days by crystal violet staining based analysis; type: functional, cell-based; conditions: U-87MG ATCC, time 14.0 day
U-87 MG [9] = test: Antiproliferative activity against human U-87 MG assessed as inhibition of cell growth at 0.025 to 0.1 uM; type: functional, U-87MG ATCC; conditions: dose 0.025-0.1 µM
Focal adhesion kinase 1 [10] = molecular target: T1, Focal adhesion kinase 1; test: Inhibition of FAK phosphorylation in human U-87 MG cells at 0.05 uM incubated for 24 hrs by Western blot analysis; type: cell-based
Target sequence in this assay (Q05397 2-1052 limits assumed): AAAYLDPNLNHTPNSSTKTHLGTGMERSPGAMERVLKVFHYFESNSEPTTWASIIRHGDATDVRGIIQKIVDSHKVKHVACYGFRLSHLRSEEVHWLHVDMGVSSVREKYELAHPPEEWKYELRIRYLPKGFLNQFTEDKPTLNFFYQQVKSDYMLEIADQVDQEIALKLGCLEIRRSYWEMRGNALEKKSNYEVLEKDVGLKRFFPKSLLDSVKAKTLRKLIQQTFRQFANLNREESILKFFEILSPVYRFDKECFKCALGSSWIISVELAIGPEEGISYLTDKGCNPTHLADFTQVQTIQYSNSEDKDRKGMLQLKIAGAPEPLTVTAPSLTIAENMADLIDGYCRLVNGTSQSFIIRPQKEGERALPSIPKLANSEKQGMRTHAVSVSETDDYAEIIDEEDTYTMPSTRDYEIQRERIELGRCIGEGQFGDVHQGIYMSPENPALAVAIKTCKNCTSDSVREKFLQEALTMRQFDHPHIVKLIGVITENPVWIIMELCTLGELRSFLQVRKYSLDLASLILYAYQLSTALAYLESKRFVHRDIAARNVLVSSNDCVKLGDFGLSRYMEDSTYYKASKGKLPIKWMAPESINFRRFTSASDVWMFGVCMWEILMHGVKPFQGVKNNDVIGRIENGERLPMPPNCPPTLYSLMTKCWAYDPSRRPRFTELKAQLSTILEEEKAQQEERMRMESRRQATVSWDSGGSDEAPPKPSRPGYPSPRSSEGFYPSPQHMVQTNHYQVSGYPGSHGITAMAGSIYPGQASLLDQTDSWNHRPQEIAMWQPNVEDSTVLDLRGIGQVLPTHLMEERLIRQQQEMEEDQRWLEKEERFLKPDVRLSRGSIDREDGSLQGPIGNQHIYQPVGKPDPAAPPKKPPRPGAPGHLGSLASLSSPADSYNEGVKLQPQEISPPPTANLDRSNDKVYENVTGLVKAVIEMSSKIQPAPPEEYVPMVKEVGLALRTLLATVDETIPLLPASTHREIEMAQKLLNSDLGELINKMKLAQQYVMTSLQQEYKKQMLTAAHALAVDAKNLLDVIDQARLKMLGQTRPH

U-87 MG [11] = test: Inhibition of AKT phosphorylation in human U-87 MG cells at 0.05 uM incubated for 24 hrs by Western blot analysis; type: cell-based
U-87 MG [12] = test: Inhibition of ERK1/2 phosphorylation in human U-87 MG cells at 0.05 uM incubated for 24 hrs by Western blot analysis; type: cell-based
U-87 MG [13] = test: Induction of apoptosis in human U-87 MG cells assessed as viable cells at 0.01 uM measured upto 24 hrs by Annexin V-FITC/PI staining based flow cytometry analysis (reference value: 98.4%); type: functional, U-87MG ATCC; conditions: read-out: Activity
U-87 MG [14] = test: Induction of apoptosis in human U-87 MG cells assessed as early apoptotic cells at 0.01 uM measured upto 24 hrs by Annexin V-FITC/PI staining based flow cytometry analysis (reference value: 0.45%); type: functional, U-87MG ATCC
U-87 MG [15] = test: Induction of apoptosis in human U-87 MG cells assessed as late apoptotic cells at 0.01 uM measured upto 24 hrs by Annexin V-FITC/PI staining based flow cytometry analysis (reference value: 0.54%); type: functional, U-87MG ATCC
U-87 MG [16] = test: Induction of apoptosis in human U-87 MG cells assessed as necrotic cells at 0.01 uM measured upto 24 hrs by Annexin V-FITC/PI staining based flow cytometry analysis (reference value: 0.62%); type: functional, U-87MG ATCC
U-87 MG [17] = test: Induction of apoptosis in human U-87 MG cells assessed as early apoptotic cells at 0.02 uM measured upto 24 hrs by Annexin V-FITC/PI staining based flow cytometry analysis (reference value: 0.45%); type: functional, U-87MG ATCC
U-87 MG [18] = test: Induction of apoptosis in human U-87 MG cells assessed as late apoptotic cells at 0.2 uM measured upto 24 hrs by Annexin V-FITC/PI staining based flow cytometry analysis (reference value: 0.54%); type: functional, U-87MG ATCC
U-87 MG [19] = test: Induction of apoptosis in human U-87 MG cells assessed as […] in cleaved caspase-3 level at 0.05 to 0.8 uM incubated for 24 hrs by Western blot analysis; type: functional, cell-based; conditions: U-87MG ATCC, dose 0.05-0.8 µM
U-87 MG [20] = test: Induction of cell cycle arrest in human U-87 MG cells assessed as accumulation of cells at G2M phase at 0.01 uM by propidium Iodide staining based flow cytometry analysis (reference value: 9.73%); type: functional, U-87MG ATCC
U-87 MG [21] = test: Induction of cell cycle arrest in human U-87 MG cells assessed as accumulation of cells at G2M phase at 0.02 uM by propidium Iodide staining based flow cytometry analysis (reference value: 9.73%); type: functional, U-87MG ATCC
U-87 MG [22] = test: Induction of cell cycle arrest in human U-87 MG cells assessed as accumulation of cells at […] at 0.02 uM by propidium Iodide staining based flow cytometry analysis (reference value: 1.67%); type: functional, U-87MG ATCC
U-87 MG [23] = test: Induction of cell cycle arrest in human U-87 MG cells assessed as accumulation of cells at S phase at 0.02 uM by propidium Iodide staining based flow cytometry analysis (reference value: 9.59%); type: functional, U-87MG ATCC
U-87 MG [24] = test: Induction of cell cycle arrest in human U-87 MG cells assessed as accumulation of cells at G0/G1 phase at 0.2 uM by propidium Iodide staining based flow cytometry analysis (reference value: 80.68%); type: functional, U-87MG ATCC
U-87 MG [25] = test: Induction of cell cycle arrest in human U-87 MG cells assessed as accumulation of cells at G2M phase at 0.2 uM by propidium Iodide staining based flow cytometry analysis (reference value: 9.73%); type: functional, U-87MG ATCC
U-87 MG [26] = test: Induction of cell cycle arrest in human U-87 MG cells assessed as accumulation of cells at S phase at 0.2 uM by propidium Iodide staining based flow cytometry analysis (reference value: 9.59%); type: functional, U-87MG ATCC
U-87 MG [27] = test: Antitumor activity against human U-87 MG cells xenografted in BALB/c mouse assessed as inhibition of tumor growth at 5 mg/kg, ip administered once daily for 15 days; type: functional, U-87MG ATCC; conditions: 360 h, time 15 day, read-out: TGI
[28] = Toxicity in BALB/c mouse implanted with human U-87 MG cells assessed as body weight loss at 5 to 25 mg/kg, ip administered once daily for 15 days by H and E staining based analysis; type: organism-based; conditions: in vivo, 360 h, dose 5-25 mg/kg, time 15 day
[29] = Toxicity in BALB/c mouse implanted with human U-87 MG cells assessed as mortality at 5 to 25 mg/kg, ip administered once daily for 15 days by H and E staining based analysis; type: organism-based; conditions: in vivo, 360 h, dose 5-25 mg/kg, time 15 day
[30] = Toxicity in BALB/c mouse implanted with human U-87 MG cells assessed as liver damage at 5 mg/kg, ip administered once daily for 15 days by H and E staining based analysis; type: organism-based; conditions: in vivo, 360 h, time 15 day
[31] = Toxicity in BALB/c mouse implanted with human U-87 MG cells assessed as lung damage at 5 mg/kg, ip administered once daily for 15 days by H and E staining based analysis; type: organism-based; conditions: in vivo, 360 h, time 15 day
[32] = Toxicity in BALB/c mouse implanted with human U-87 MG cells assessed as spleen damage at 5 mg/kg, ip administered once daily for 15 days by H and E staining based analysis; type: organism-based; conditions: in vivo, 360 h, time 15 day
[33] = Toxicity in BALB/c mouse implanted with human U-87 MG cells assessed as hypertrophy in myocardium at 5 mg/kg, ip administered once daily for 15 days by H and E staining based analysis; type: organism-based; conditions: in vivo, 360 h, time 15 day
[34] = Toxicity in BALB/c mouse implanted with human U-87 MG cells assessed as tubular epithelial degeneration in renal cortex at 5 mg/kg, ip administered once daily for 15 days by H and E staining based analysis; type: organism-based; conditions: in vivo, 360 h, time 15 day

CNC(=O)c1ccccc1Nc1nc(Nc2ccc(N3CCN(CCOC(=O)CCCc4ccc(N(CCCl)CCCl)cc4)CC3)cc2)ncc1C(F)(F)F
IC50 (Focal adhesion kinase 1 [1]): 0.000815 µM | IC50 at 48 h [2]: 0.586 µM | IC50 at 48 h [3]: 11.1 µM | Peff [4]: 0.002 10^-6 cm/s | selectivity ratio [5]: > 40 | selectivity ratio [6]: > 40 | Activity (U-87 MG [7]): Dose-dependent-effect; Ability To Induce Dna Damage Was Stronger Than That Of Tmx And Chlorambucil | inhibition (U-87 MG [8]): Active | inhibition (INH) (U-87 MG [9]): 100% | inhibition (Focal adhesion kinase 1 [10]): Active | inhibition (U-87 MG [11]): Active | inhibition (U-87 MG [12]): Active | viability at 0.01 µM (U-87 MG [13]): 74.8% | Activity (U-87 MG [14]): 15.8% | Activity (U-87 MG [15]): 4.61% | Activity (U-87 MG [16]): 4.83% | Activity (U-87 MG [17]): 25.9% | Activity (U-87 MG [18]): 5.65% | Activity (U-87 MG [19]): Active | Activity (U-87 MG [20]): 16.53% | Activity (U-87 MG [21]): 20.9% | Activity (U-87 MG [22]): 1.87% | Activity (U-87 MG [23]): 16.42% | Activity (U-87 MG [24]): 44.98% | Activity (U-87 MG [25]): 43.61% | Activity (U-87 MG [26]): 11.41% | inhibition in vivo at 5 mg/kg (U-87 MG [27]): 63.7% | Activity [28]: Non-toxic | Activity [29]: Non-toxic | Activity [30]: Non-toxic | Activity [31]: Non-toxic | Activity [32]: Non-toxic | Activity [33]: Non-toxic | Activity [34]: Non-toxic
